Measured values: patent publication US10968462B2, “Plants having increased tolerance to herbicides” (BASF AGRO B.V., priority 2013, dated 2021)

Test system: transgenic T2 soybean plants
Assay: Soybean greenhouse spray test, T2 plants at V2-V3 stage, injury 0-9 point scale 1 or 2 weeks after treatment (Tables 7C-7E)
Format: in vivo, Glycine max
Details: 2 week after treatment
Method: Soybean cv Jake was transformed as previously described by Siminszky et al., Phytochem Rev. 5:445-458 (2006). After regeneration, transformants were transplanted to soil in small pots, placed in growth chambers (16 hr day/8 hr night; 25° C. day/23° C. night; 65% relative humidity; 130-150 microE m-2 s-1) and subsequently tested for the presence of the T-DNA via Taqman analysis. After a few weeks, healthy, transgenic positive, single copy events were transplanted to larger pots and allowed to grow in the growth chamber. An optimal shoot for cutting was about 3-4 inches tall, with at least two nodes present. Each cutting was taken from the original transformant (mother plant) and dipped into rooting hormone powder (indole-3-butyric acid, IBA). The cutting was then placed in oasis wedges inside a bio-dome. The mother plant was taken to maturity in the greenhouse and harvested for seed. Wild type cuttings were also taken simultaneously to serve as negative controls. The cuttings were kept in the bio-dome for 5-7 days and then transplanted to 3 inch pots and then acclimated in the growth chamber for two more days. […] Other herbicides, such as AHAS (ALS—Acetolactate Synthase) inhibiting herbicides were also tested in a similar fashion for confirming cross resistance to other modes of action: Tritosulfuron, Florasulam, Metsulfuron, Rimsulfuron. Herbicide injury evaluations were taken at 2, 7, 14 and 21 days after treatment.
• 0 No Injury • 1 Minimal injury, only a few patches of leaf injury or chlorosis. • 2 Minimal injury with slightly stronger chlorosis. Overall growth points remain undamaged. • 3 Slightly stronger injury on secondary leaf tissue, but primary leaf and growth points are still undamaged. • 4 Overall plant morphology is slightly different, some chlorosis and necrosis in secondary growth points and leaf tissue. Stems are intact. Regrowth is highly probable within 1 week. • 5 Overall plant morphology is clearly different, some chlorosis and necrosis on a few leaves and growth points, but primary growth point is intact. Stem tissue is still green. Regrowth is highly probably within 1 week. • 6 Strong injury can be seen on the new leaflet growth. Plant has a high probability to survive only through regrowth at different growth points. Most of the leaves are chlorotic/necrotic but stem tissue is still green. May have regrowth but with noticeable injured appearance. • 7 Most of the active growth points are necrotic. There may be a single growth point that could survive and may be partially chlorotic or green and partially necrotic. Two leaves may still be chlorotic with some green; the rest of the plant including stem is necrotic. • 8 Plant will likely die, and all growth points are necrotic. One leaf may still be chlorotic with some green. The remainder of the plant is necrotic. • 9 Plant is dead. • * Not tested

## CCS(=O)(=O)c1cccnc1S(=O)(=O)NC(=O)Nc1nc(OC)cc(OC)n1 [Rimsulfuron]
Bradi_1g07930.1 (Event 1), 10 g ai/ha
  injury on a 0-9 point scale: 6.0
Bradi_1g07930.1 (Event 1), Rimsulfuron 1.25 g ai/ha
  injury on a 0-9 point scale: 6.0
Bradi_1g07930.1 (Event 1), Rimsulfuron 2.5 g ai/ha
  injury on a 0-9 point scale: 6.0
Bradi_1g07930.1 (Event 1), Rimsulfuron 5 g ai/ha
  injury on a 0-9 point scale: 6.0
R128A_F420V (Event 1), 10 g ai/ha
  injury on a 0-9 point scale: 7.5
R128A_F420V (Event 1), Rimsulfuron 1.25 g ai/ha
  injury on a 0-9 point scale: 6.5
R128A_F420V (Event 1), Rimsulfuron 5 g ai/ha
  injury on a 0-9 point scale: 7.0
R128A_F420V (Event 2), 10 g ai/ha
  injury on a 0-9 point scale: 7.0
R128A_F420V (Event 2), Rimsulfuron 1.25 g ai/ha
  injury on a 0-9 point scale: 6.0
R128A_F420V (Event 2), Rimsulfuron 2.5 g ai/ha
  injury on a 0-9 point scale: 7.0
R128A_F420V (Event 2), Rimsulfuron 5 g ai/ha
  injury on a 0-9 point scale: 7.0
R128A_F420V + Bradi_1g07930.1 (Event 1), 10 g ai/ha
  injury on a 0-9 point scale: 4.3
R128A_F420V + Bradi_1g07930.1 (Event 1), Rimsulfuron 1.25 g ai/ha
  injury on a 0-9 point scale: 4.0
R128A_F420V + Bradi_1g07930.1 (Event 1), Rimsulfuron 2.5 g ai/ha
  injury on a 0-9 point scale: 3.5
R128A_F420V + Bradi_1g07930.1 (Event 1), Rimsulfuron 5 g ai/ha
  injury on a 0-9 point scale: 3.3
R128A_F420V + Bradi_1g07930.1 (Event 2), 10 g ai/ha
  injury on a 0-9 point scale: 5.0
R128A_F420V + Bradi_1g07930.1 (Event 2), Rimsulfuron 1.25 g ai/ha
  injury on a 0-9 point scale: 3.0
R128A_F420V + Bradi_1g07930.1 (Event 2), Rimsulfuron 2.5 g ai/ha
  injury on a 0-9 point scale: 4.0
R128A_F420V + Bradi_1g07930.1 (Event 2), Rimsulfuron 5 g ai/ha
  injury on a 0-9 point scale: 4.5
Wild type, 10 g ai/ha
  injury on a 0-9 point scale: 8.5
Wild type, Rimsulfuron 1.25 g ai/ha
  injury on a 0-9 point scale: 8.0
Wild type, Rimsulfuron 2.5 g ai/ha
  injury on a 0-9 point scale: 8.5
Wild type, Rimsulfuron 5 g ai/ha
  injury on a 0-9 point scale: 8.3

## COc1nc(NC(=O)NS(=O)(=O)c2ccccc2C(F)(F)F)nc(C(F)(F)F)n1 [Tritosulfuron]
Bradi_1g07930.1 (Event 1), 4.375 g ai/ha
  injury on a 0-9 point scale: 1.5
Bradi_1g07930.1 (Event 1), 8.75 g ai/ha
  injury on a 0-9 point scale: 0.5
Bradi_1g07930.1 (Event 1), 17.5 g ai/ha
  injury on a 0-9 point scale: 1.7
Bradi_1g07930.1 (Event 1), 35 g ai/ha
  injury on a 0-9 point scale: 2.3
Bradi_1g07930.1 (Event 1), 70 g ai/ha
  injury on a 0-9 point scale: 1.5
Bradi_1g07930.1 (Event 1), 140 g ai/ha
  injury on a 0-9 point scale: 0.3
R128A_F420V (Event 1), 4.375 g ai/ha
  injury on a 0-9 point scale: 5.3
R128A_F420V (Event 1), 8.75 g ai/ha
  injury on a 0-9 point scale: 6.0
R128A_F420V (Event 1), 17.5 g ai/ha
  injury on a 0-9 point scale: 7.0
R128A_F420V (Event 1), 35 g ai/ha
  injury on a 0-9 point scale: 7.0
R128A_F420V (Event 1), 70 g ai/ha
  injury on a 0-9 point scale: 7.0
R128A_F420V (Event 1), 140 g ai/ha
  injury on a 0-9 point scale: 6.5
R128A_F420V (Event 2), 4.375 g ai/ha
  injury on a 0-9 point scale: 6.0
R128A_F420V (Event 2), 8.75 g ai/ha
  injury on a 0-9 point scale: 6.5
R128A_F420V (Event 2), 17.5 g ai/ha
  injury on a 0-9 point scale: 7.0
R128A_F420V (Event 2), 35 g ai/ha
  injury on a 0-9 point scale: 7.0
R128A_F420V (Event 2), 70 g ai/ha
  injury on a 0-9 point scale: 7.0
R128A_F420V (Event 2), 140 g ai/ha
  injury on a 0-9 point scale: 8.0
R128A_F420V + Bradi_1g07930.1 (Event 1), 4.375 g ai/ha
  injury on a 0-9 point scale: 0.3
R128A_F420V + Bradi_1g07930.1 (Event 1), 8.75 g ai/ha
  injury on a 0-9 point scale: 0.3
R128A_F420V + Bradi_1g07930.1 (Event 1), 17.5 g ai/ha
  injury on a 0-9 point scale: 1.5
R128A_F420V + Bradi_1g07930.1 (Event 1), 35 g ai/ha
  injury on a 0-9 point scale: 2.0
R128A_F420V + Bradi_1g07930.1 (Event 1), 70 g ai/ha
  injury on a 0-9 point scale: 2.7
R128A_F420V + Bradi_1g07930.1 (Event 1), 140 g ai/ha
  injury on a 0-9 point scale: 1.3
R128A_F420V + Bradi_1g07930.1 (Event 2), 4.375 g ai/ha
  injury on a 0-9 point scale: 1.0
R128A_F420V + Bradi_1g07930.1 (Event 2), 8.75 g ai/ha
  injury on a 0-9 point scale: 2.3
R128A_F420V + Bradi_1g07930.1 (Event 2), 17.5 g ai/ha
  injury on a 0-9 point scale: 1.5
R128A_F420V + Bradi_1g07930.1 (Event 2), 35 g ai/ha
  injury on a 0-9 point scale: 1.0
R128A_F420V + Bradi_1g07930.1 (Event 2), 70 g ai/ha
  injury on a 0-9 point scale: 3.0
R128A_F420V + Bradi_1g07930.1 (Event 2), 140 g ai/ha
  injury on a 0-9 point scale: 3.0
Wild type, 4.375 g ai/ha
  injury on a 0-9 point scale: 8.0
Wild type, 8.75 g ai/ha
  injury on a 0-9 point scale: 8.0
Wild type, 17.5 g ai/ha
  injury on a 0-9 point scale: 8.0
Wild type, 35 g ai/ha
  injury on a 0-9 point scale: 8.3
Wild type, 70 g ai/ha
  injury on a 0-9 point scale: 8.3
Wild type, 140 g ai/ha
  injury on a 0-9 point scale: 8.3
